# pIC50: −log10 of the molar value. Read-outs that look alike come from different tables or passages of the source.
# Experiments:
# CDK4/cyclin D3 = target: T1, CDK4/cyclin D3 (Homo sapiens, UniProt P11802); experiment: Human CDK4/cyclin D3 inhibitory activity (QS S Assist CDK4/Cyclin D3_FP Kit, IMAP fluorescence polarization); format: biochemical
# T1 construct: purchased Carna Biosciences, Inc. QS S Assist CDK4/Cyclin D3_FP Kit
# Outline: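 Percent inhibition, relative to DMSO with and without enzyme, was curve-fitted to give IC50 from polarization (ex 485, em 535 nm). The 45-min room-temperature reaction used 12.5-25 ng/well enzyme, kit ATP/substrate/metal mix, and HEPES pH 7.4 buffer with Tween20 and DTT, followed by 30-min IMAP binding in the dark.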
# CDK2/cyclin A2 = target: T2, CDK2/cyclin A2 (Homo sapiens, UniProt P24941); experiment: Human CDK2/cyclin A2 inhibitory activity (QS S Assist CDK2/Cyclin A2_FP Kit, IMAP fluorescence polarization); format: biochemical
# T2 construct: purchased Carna Biosciences, Inc. QS S Assist CDK2/Cyclin A2_FP Kit
# Outline: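 Kinase activity read as fluorescence polarization (485/535 nm) after phosphorylated fluorescent substrate binds IMAP reagent (30 min, RT, dark). Enzyme (2.5 ng/well) reacted 60 min at RT with ATP/substrate/metal in HEPES pH 7.4 buffer with Tween 20 and DTT; no-enzyme wells define 0% activity; IC50 by curve fit.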
# [1] = 50% inhibitory concentration against CDK4/cyclin D3, given as class symbol
# [2] = 50% inhibitory concentration against CDK2/cyclin A2, given as class symbol
# [3] = Human CDK4/cyclin D3 inhibitory activity, read-out: CDK4 Activity symbol
# [4] = Human CDK2/cyclin A2 inhibitory activity, read-out: CDK2 Activity symbol
# T1 sequence (P11802 whole entry): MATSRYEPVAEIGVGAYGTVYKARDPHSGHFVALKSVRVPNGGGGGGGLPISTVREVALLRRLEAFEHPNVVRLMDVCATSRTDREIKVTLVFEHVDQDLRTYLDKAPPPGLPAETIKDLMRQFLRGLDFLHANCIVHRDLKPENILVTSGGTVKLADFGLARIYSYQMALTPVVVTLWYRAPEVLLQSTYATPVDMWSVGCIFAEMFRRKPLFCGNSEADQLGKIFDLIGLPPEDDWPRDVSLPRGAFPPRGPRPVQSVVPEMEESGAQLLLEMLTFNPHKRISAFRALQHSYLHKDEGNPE
# T1 sequence (P30281 whole entry partner): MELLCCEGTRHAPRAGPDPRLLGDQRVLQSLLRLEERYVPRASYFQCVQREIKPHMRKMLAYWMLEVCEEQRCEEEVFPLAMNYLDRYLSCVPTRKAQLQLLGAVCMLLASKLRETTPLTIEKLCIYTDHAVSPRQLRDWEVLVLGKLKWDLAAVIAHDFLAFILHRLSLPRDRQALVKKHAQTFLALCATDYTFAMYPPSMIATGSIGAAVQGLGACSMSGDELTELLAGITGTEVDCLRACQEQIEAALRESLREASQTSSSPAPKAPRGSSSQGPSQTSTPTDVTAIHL
Structure (SMILES),pIC50 (CDK4/cyclin D3; [1]),pIC50 (CDK2/cyclin A2; [2]),pIC50 (CDK4/cyclin D3; [3]),pIC50 (CDK2/cyclin A2; [4])
CC(C)Nc1nc([C@@H](C)O)cc2cnc(Nc3ccc(N4CC(C)(CO)C4)nn3)nc12 [Compound 668],> 8.00,≤ 7.00,,
COCCNCc1ccc(Nc2ncc3cc([C@@H](C)O)nc(NC(C)(C)COC)c3n2)nc1 [Compound 242],,,7.00 to 8.00,≤ 7.00
CNC1CCN(c2ccc(Nc3ncc4cc([C@@H](C)O)nc(NC(C)C)c4n3)nn2)CC1 [Compound 497],,,> 8.00,≤ 7.00
CC(C)Nc1nc(C(F)F)cc2cnc(Nc3ccc(N4CC[C@H](O)CC4=O)cn3)nc12 [Compound 137],,,> 8.00,7.00 to 8.00
CC(C)Nc1nc(C(F)F)cc2cnc(Nc3ccc(C4CCOCC4=O)cn3)nc12 (stereo not drawn) [Compound 161],,,> 8.00,7.00 to 8.00
CC(C)Nc1nc(C(F)F)cc2cnc(Nc3ccc(CN4CCCC4C(=O)O)cn3)nc12 (stereo not drawn) [Compound 189],,,> 8.00,7.00 to 8.00
CO[C@H](C)c1cc2cnc(Nc3ccc(CN4CCc5nc(C)[nH]c5C4)cn3)nc2c(NC(C)C)n1 [Compound 277],,,≤ 7.00,≤ 7.00
COC(C)c1cc2cnc(Nc3ccc(N4CC5CCC(C4)N5)cn3)nc2c(NC(C)C)n1 (stereo not drawn) [Compound 501],,,> 8.00,≤ 7.00
COCC(C)(C)Nc1nc([C@@H](C)O)cc2cnc(Nc3ccc(CN4CCn5ccnc5C4)cn3)nc12 [Compound 295],,,7.00 to 8.00,≤ 7.00
CC(C)Nc1nc([C@@H](C)O)cc2cnc(Nc3ccc(N4CCC(C)(N)CC4)nn3)nc12 [Compound 561],,,> 8.00,≤ 7.00
"CC(C)Nc1nc(C2CCCO2)cc2cnc(Nc3ccc(N4CCNCC4)nn3)nc12 (single isomer, unassigned) [Compound 713]",> 8.00,≤ 7.00,,

# More lines, now with the values ahead:
pIC50 (CDK4/cyclin D3; [1]),pIC50 (CDK2/cyclin A2; [2]),pIC50 (CDK4/cyclin D3; [3]),pIC50 (CDK2/cyclin A2; [4]),Structure (SMILES)
> 8.00,≤ 7.00,,,CO[C@H](C)c1cc2cnc(Nc3ccc(N4CCN(C(C)C#N)CC4)nn3)nc2c(NC(C)C)n1 (stereo partly drawn) [Compound 907]
> 8.00,≤ 7.00,,,C[C@@H](O)c1cc2cnc(Nc3ccc(N4CCNCC4=O)cn3)nc2c(NC2(C)CC2)n1 [Compound 1173]
≤ 7.00,≤ 7.00,,,CCC(OC)c1cc2cnc(Nc3ccc(N4CCNCC4)nn3)nc2c(NC(C)C)n1 (stereo not drawn) [Compound 1068]
> 8.00,≤ 7.00,,,CC(C)Nc1nc([C@@H](C)O)cc2cnc(Nc3ccc(CC4CCN(CCO)CC4)cn3)nc12 [Compound 951]
> 8.00,≤ 7.00,,,CNC1CC2(C1)CN(c1ccc(Nc3ncc4cc([C@@H](C)OC)nc(N[C@H]5CCCOC5)c4n3)nc1)C2 [Compound 1009]
> 8.00,≤ 7.00,,,CCNc1nc([C@@H](C)O)c(F)c2cnc(Nc3ccc(CN4CCN(CCO)CC4)cn3)nc12 [Compound 1202]
> 8.00,≤ 7.00,,,"CCNc1nc([C@@H](C)O)cc2cnc(Nc3ccc(CN4CCN(C(C)CO)CC4)cn3)nc12 (single isomer, unassigned) [Compound 1089]"
> 8.00,≤ 7.00,,,CO[C@H](C)c1cc2cnc(Nc3ccc(NC(=O)C4CCCCN4)cn3)nc2c(NC(C)C)n1 (stereo partly drawn) [Compound 838]
> 8.00,≤ 7.00,,,CCCNc1nc([C@@H](C)O)cc2cnc(Nc3ccc(O[C@@H]4CCN(CCO)C4)cn3)nc12 [Compound 1059]
> 8.00,≤ 7.00,,,CN[C@H]1CC[C@@H](Oc2ccc(Nc3ncc4cc([C@@H](C)O)nc(NC(C)C)c4n3)nc2)CC1 [Compound 738]
> 8.00,≤ 7.00,,,"CC(C)Nc1nc(C2CCCO2)cc2cnc(Nc3ccc(CN4CCNCC4)cn3)nc12 (single isomer, unassigned) [Compound 729]"
7.00 to 8.00,≤ 7.00,,,CCNc1nc([C@@H](C)OC)cc2cnc(Nc3ccc4c(n3)CCN(C(=O)CO)C4)nc12 [Compound 1112]
> 8.00,≤ 7.00,,,CO[C@H](C)c1cc2cnc(Nc3ccc(N4CCN(C(=O)C5CCOC5)CC4)nn3)nc2c(NC(C)C)n1 (stereo partly drawn) [Compound 1177]

# Reference: patent US10124004B2, “Pyrido[3,4-d]pyrimidine derivative and pharmaceutically acceptable salt thereof” (Teijin Pharma Limited, priority 2015, dated 2018)
